# From US20240083944A1 (priority 2021, published 2024)
# Starred links: 1 amine or outer side, 2 acyl side, 3 side chain; linkers in the order of their positions; H or OH if unused. Positions of bridges follow the written chain, without caps; N, C: chain ends. Non-standard residues stand in square brackets, D forms with d. Chains are numbered I, II in the order given. X2 = O=C(CCOCCN(CCOCCC(=O)NCCOCCOCCOCCOCCOCCOCCOCCOCCOCCOCCn1cc(CCC(=O)[*:2])nn1)CCOCCC(=O)NCCOCCOCCOCCOCCOCCOCCOCCOCCOCCOCCn1cc(CCC(=O)[*:3])nn1)NCCOCCOCCOCCOCCOCCOCCOCCOCCOCCOCCn1cc(CCC(=O)[*:1])nn1; X1 = C(c1nc(C[*:2])nc(C[*:3])n1)[*:1]; tBuAla = CC(C)(C)C[C@H](N)C(=O)O; Agb = N=C(N)NCC[C@H](N)C(=O)O
# Tested on: SARS-CoV-2 pseudotyped HIV-1 virions, D614G
substance,measurement,value
"I: Ac-CPYVAG[Agb][dA]TCL[tBuAla]CK-NH2 / II: Ac-CPYVAG[Agb][dA]TCL[tBuAla]CK-NH2 / III: Ac-CPYVAG[Agb][dA]TCL[tBuAla]CK-NH2 (linker I:1-I:10-I:13, II:1-II:10-II:13, III:1-III:10-III:13 via X1; linker I:14-II:14-III:14 via X2) [BCY17021]",IC50,0.5 nM
